These results are taken from US7585503B2, “Method for detecting multi-drug resistance” (priority 2005, dated 2009).

Type in all cases: cell-based, human
In one assay the test system is 2008/C13*5.25. Kind of assay: Cisplatin resistance (IC-50) of resistant sub-line versus parental line. From the text:
(§1) Three isogenic pairs of sensitive and multidrug resistant phenotypes of human ovarian carcinoma cell lines were studied. […] The morphology of the resistant cells differed from the sensitive isotypes, consistent with the cell surface molecular modifications.

The subject of a further assay is A2780/CP. Described as above.
Source text: as §1

The next assay concerns IGROV-1/CP. The assay is described as above. To be noted: IGROV-1/CP versus parental IGROV-1.
Source text: as §1

For assay [1], the system named is 2008/C13*5.25 resistant ovarian carcinoma cells. Kind of assay: Cytotoxicity assay by colony forming ability, resistant cells. To be noted: 25 μM cisplatin with or without 5 mU sialidase, 1 h, about two weeks of growth. The protocol:
To confirm the sialidase effects on F-DDP internalization and sensitizing the resistant cells to the drug, the resistant cells were tested in cytotoxicity assay to determine colony formation ability with cisplatin treatments in the presence and absence of sialidase. Resistant cells were treated with high concentration of cisplatin (25 μM, an IC-50 about 10 fold higher than that of the sensitive cells) in the absence and presence of 5 mU sialidase (see table 1 in “Experimental procedures”). The colony formation ability of MDR cells was reduced 40-50%, when sialidase concomitant with cisplatin was added to the resistant cells compare to the resistant cells treated with the same amounts of cisplatin in the absence of sialidase. The data, thus, support the sialidase-mediated drug internalization and increasing the cytotoxicity of the drug.
Colony forming ability assay was performed by seeding 100 cells/ml of sensitive or resistant isotypes per each well/ml in 12 well plates. Cells were cultured with DMEM, 10% FBS overnight. The assay was performed in 4 plates for each of the sensitive or resistant isotypes in the format shown in Table 1 and was repeated three times. 2008 isotype pair were used in the experiment. […]

The test system of assay [2] is 2008 sensitive ovarian carcinoma cells. Kind of assay: Cytotoxicity assay by colony forming ability, sensitive cells. To be noted: 25 μM cisplatin, 1 h. The method, then:
Colony forming ability assay was performed by seeding 100 cells/ml of sensitive or resistant isotypes per each well/ml in 12 well plates. Cells were cultured with DMEM, 10% FBS overnight. The assay was performed in 4 plates for each of the sensitive or resistant isotypes in the format shown in Table 1 and was repeated three times. 2008 isotype pair were used in the experiment. Sensitive cells could not tolerate such high concentration of cisplatin, used in the assay, to serve the resistant cells, as the IC-50 was 10 fold higher for resistant cells compare to their parental susceptible phenotype.
Table 1: Colony forming ability was performed by seeding 100 cells/ml of sensitive or resistant isotypes per each well/ml in 12 well plates. Cells were cultured with DMEM, 10% FBS overnight. The assay was performed in 4 plates for each of the sensitive or resistant isotypes in the above format and was repeated three times for each cell pair. plate 1 (control): DMEM, 10%FBS; plate 2: DMEM containing 25 μM cisplatin; plate 3: DMEM containing 25 μM cisplatin and 5 mU neuraminidase (AUS); plate 4: DMEM containing 5 mU neuraminidase.
After one hour incubation at 37 degree C., 5% CO2, the media of different treatments were removed from the wells. Cells were then washed with DMEM and was replaced by fresh DMEM, 10% FBS. Incubation continued for about two more weeks for the colonies to appear. […]

Turning to `N.N.[Cl][Pt][Cl]` [cisplatin, Dichlorodiaminocisplatin], the “fold increase in IC-50 to cisplatin resistance” value is 10.4 fold in the assay with 2008/C13*5.25 (2008/C13*5.25 versus parental 2008), 6.9 fold with A2780/CP and 7.6 fold with IGROV-1/CP. For the same compound, in the assay with 2008/C13*5.25 (resistant cells, the concentration used in the colony assay), the concentration for half-maximal inhibition (IC50) was 25 µM. Also, in assay [1], the “cell growth / colony formation relative to control (plate #1 = 100% growth)” value was “about 80 % of the control”. Further, the “colony formation (in words)” value in assay [2] was “almost no real colony formed”.

What is called IC50 is the concentration needed to halve the response being measured.
